Reference: US6521643B1, “Pyridine compounds and their pharmaceutical use” (Fujisawa Pharmaceutical Co., Ltd., priority 1999, dated 2003)
Where a name gives a salt, the structure may show the parent alone.

Legend:
[1] = target: T1, Nitric Oxide Synthase (NOS) (Rattus norvegicus, UniProt P29476); assay: Binding assay using nitric oxide synthase (NOS), crude preparation from rat brain cytosol, [3H]Na radioligand; conditions: test compound 10^−4M, brain cytosol of male SD rats, 10 nM [^3H]Na, 27° C., 90 minutes; for inhibition: read-out: Inhibition (%) of specific binding
T1 construct: each drug was incubated with the brain cytosol (200 μg protein/tube); from tissue; host or cells: whole brain (including cerebellum) of male SD rats, cytosolic supernatant (48,000 x g), passed through Dowex AG50WX-8
Method: Test: Binding Assay Using Nitric Oxide Synthase (NOS)
A crude preparation of NOS was obtained from brains of male SD rats. The whole brain (including cerebellum) was homogenized with 5 volume (W/V) of 50 mM Tris buffer (pH 7.0 at 4° C.) and centrifuged at 48,000×g for 20 minutes. The pellet was discarded and the supernatant was passed through ¼ volume (V/V) of Dowex AG50WX-8 resin (Na^+ form), in order to remove endogenous arginine. The supernatant was collected, the pH was adjusted to 7.0 at 22° C., and this cytosolic preparation was frozen and stored at −80° C. until required. In the binding assay, each drug was incubated with the brain cytosol (200 μg protein/tube) in 0.15 ml (final volume) of 50 mM Tris buffer containing 10 μM CaCl2 and 10 nM [^3H]Na (Amersham, UK). Incubation was performed at 27° C. for 90 minutes and terminated by vacuum filtration through 0.3% polyethyleneimine pretreated GF/B glass fibre filters which were subsequently washed with distilled water (4° C., 4 ml×4). Nonspecific binding was defined by use of […] Na. Data are expressed as inhibition % of specific binding.

inhibition [1]	SMILES	also measured
–	Cc1ccnc(C(O)c2sc(NC(=N)N)nc2C)c1 (centres unmarked) [Example 24, N-(5-(hydroxy-(4-methylpyridin-2-yl)methyl)-4-methylthiazol-2-yl)guanidine]	melting point: 150.5 to 151.5 °C
–	COc1ccnc(-c2ccc(C)c(NC(=N)N)c2)c1.Cl.Cl [(b), (5-(4-Methoxypyridin-2-yl)-2-methylphenyl)guanidine dihydrochloride]	Inhibition (%) of specific binding [1]: 98.9%
99%	COc1ccnc(-c2sc(NC(=N)N)nc2C)c1 [(a), 2-Guanidino-4-methyl-5-(4-methoxypyridin-2-yl)thiazole]	–
–	CC(=O)NC(c1cc(C)ccn1)c1sc(NC(=N)N)nc1C (centres unmarked) [Example 26, N-(5-(acetylamino-(4-methylpyridin-2-yl)methyl)-4-methylthiazol-2-yl)-guanidine]	melting point: 239 to 240 °C
99.4%	CNc1ccc2ccc(-c3cc(OC)ccn3)cc2n1 [(f), 7-(4-Methoxypyridin-2-yl)-2-methylaminoquinoline dihydrochloride]	–
100%	CCSC(=N)Nc1cccc(-c2cc(OC)ccn2)c1 [(c), N-(3-(4-Methoxypyridin-2-yl)phenyl)-S-ethylisothiourea dihydrochloride]	–
98%	Cc1ccnc(-c2ccc3ccc(N)nc3c2)c1 [(e), 2-Amino-7-(4-methylpyridin-2-yl)quinoline dihydrochloride]	–
99.3%	COc1ccnc(-c2ccc3ccc(N)nc3c2)c1 [(d), 2-Amino-7-(4-methoxypyridin-2-yl)quinoline dihydrochloride]	–
